The supplement of paper PMC10307832

Columns and labels:
Experiment in all cases: relative viability (nuclei count vs DMSO), 5 days (fraction); higher = more cells survive
Bicalutamide + Olaparib = compound: CC(O)(CS(=O)(=O)c1ccc(F)cc1)C(=O)Nc1ccc(C#N)c(C(F)(F)F)c1 [Bicalutamide] + O=C(c1cc(Cc2n[nH]c(=O)c3ccccc23)ccc1F)N1CCN(C(=O)C2CC2)CC1 [Olaparib] (partner 8 µM)
Outline: (§1)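 Each reported value is a median over duplicate plates. It expresses relative viability: treated-well nuclei count divided by vehicle-well nuclei count. Lung cancer cell lines in 1536-well plates were dosed by pin tool a day after seeding, alone with one drug or with a fixed anchor-drug dose plus five library-drug doses (not always all listed) in √10 steps, and nuclei were counted after 5 days.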

[1] = compound: C(C(=O)C(=O)O)Br [Bromopyruvate] + Cc1cc(Nc2cc(N3CCN(C)CC3)nc(Sc3ccc(NC(=O)C4CC4)cc3)n2)n[nH]1 [Tozasertib] (partner 0.1 µM)
Outline: as §1

Bicalutamide + Lapatinib = compound: CC(O)(CS(=O)(=O)c1ccc(F)cc1)C(=O)Nc1ccc(C#N)c(C(F)(F)F)c1 [Bicalutamide] + CS(=O)(=O)CCNCc1ccc(-c2ccc3ncnc(Nc4ccc(OCc5cccc(F)c5)c(Cl)c4)c3c2)o1 [Lapatinib] (partner 2 µM)
Outline: as §1

[2] = compound: CC(O)(CS(=O)(=O)c1ccc(F)cc1)C(=O)Nc1ccc(C#N)c(C(F)(F)F)c1 [Bicalutamide] + CC(=O)c1c(C)c2cnc(Nc3ccc(N4CCNCC4)cn3)nc2n(C2CCCC2)c1=O [Palbociclib] (partner 0.5 µM)
Outline: as §1

## UMC-11
Bicalutamide + Olaparib; first compound 0.08 µM
  relative viability: 0.386
Bicalutamide + Olaparib; first compound 0.253 µM
  relative viability: 0.347
Bicalutamide + Olaparib; first compound 0.8 µM
  relative viability: 0.406
Bicalutamide + Olaparib; first compound 2.53 µM
  relative viability: 0.522
[1]; first compound 1 µM
  relative viability: 0.201
[1]; first compound 3.162 µM
  relative viability: 0.196
[1]; first compound 10 µM
  relative viability: 0.188
[1]; first compound 31.62 µM
  relative viability: 0.208
[1]; first compound 100 µM
  relative viability: 0.213
Bicalutamide + Lapatinib; first compound 0.08 µM
  relative viability: 0.951
Bicalutamide + Lapatinib; first compound 0.253 µM
  relative viability: 0.723
Bicalutamide + Lapatinib; first compound 0.8 µM
  relative viability: 1.12
Bicalutamide + Lapatinib; first compound 2.53 µM
  relative viability: 0.899
[2]; first compound 0.08 µM
  relative viability: 0.34
[2]; first compound 0.253 µM
  relative viability: 0.367
[2]; first compound 0.8 µM
  relative viability: 0.319
[2]; first compound 2.53 µM
  relative viability: 0.347
